In PubChem BioAssay AID342 (DTP/NCI, 2004):
Values joined by “and” are separate entries in the source; they are usually repeats but may differ in a detail not shown here. Equal entries are not always repeated.

System: Swiss mice, Sarcoma 180 sc, mean tumor weight T/C
Assay: NCI In Vivo Anticancer Drug Screen. Data for tumor model Sarcoma 180 (subcutaneous) in Swiss mice
Conditions: endpoint: mean tumor weight, higher = larger tumour
In short: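 Readout is the ratio of treated-group measurement to vehicle-control measurement (T/C), based on survival or tumor size in mice carrying transplanted tumors.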

[1] = dose: 15.0 mg/kg/injection, schedule: Q01DX007 (ip), vehicle: carboxymethylcellulose (CMC)

CO[C@H]1CC[C@@]2(C)C(=CC[C@H]3[C@@H]4C[C@H](O)[C@H](OC)[C@@]4(C)CC[C@@H]32)C1
T/C (dose: 0.25 mg/kg/injection, schedule: Q#A X014 (sc), vehicle: steriod suspending solution): 94 % of control | T/C (dose: 2.5 mg/kg/injection, schedule: Q#A X014 (sc), vehicle: steriod suspending solution): 85 % of control | T/C (dose: 10.0 mg/kg/injection, schedule: Q#A X014 (sc), vehicle: steriod suspending solution): 122 % of control | T/C (dose: 50.0 mg/kg/injection, schedule: Q#A X014 (sc), vehicle: steriod suspending solution): 97 % of control

N#[N+]c1n[nH]nc1C(N)=O
T/C (dose: 12.5 mg/kg/injection, schedule: Q01DX007 (ip), vehicle: carboxymethylcellulose (CMC)): 114 % of control | T/C (dose: 25.0 mg/kg/injection, schedule: Q01DX007 (ip), vehicle: carboxymethylcellulose (CMC)): 74 % of control

CCCCNC(=O)c1n[se]nc1NC(N)=O
T/C [1]: 94 % of control | T/C (dose: 30.0 mg/kg/injection, schedule: Q01DX007 (ip), vehicle: carboxymethylcellulose (CMC)): 114 % of control

NC1(C(=O)OCc2ccccc2)CCCC1
T/C (dose: 50.0 mg/kg/injection, schedule: Q01DX007 (ip), vehicle: carboxymethylcellulose (CMC)): 87 % of control | T/C (dose: 100.0 mg/kg/injection, schedule: Q01DX007 (ip), vehicle: carboxymethylcellulose (CMC)): 76 % of control | T/C (dose: 200.0 mg/kg/injection, schedule: Q01DX007 (ip), vehicle: carboxymethylcellulose (CMC)): 66 % of control | T/C (dose: 333.0 mg/kg/injection, schedule: Q01DX007 (ip), vehicle: carboxymethylcellulose (CMC)): 64 % of control | T/C (dose: 400.0 mg/kg/injection, schedule: Q01DX007 (ip), vehicle: carboxymethylcellulose (CMC)): 47 % of control | T/C (dose: 500.0 mg/kg/injection, schedule: Q01DX007 (ip), vehicle: carboxymethylcellulose (CMC)): 36 % of control | T/C (dose: 750.0 mg/kg/injection, schedule: Q01DX007 (ip), vehicle: carboxymethylcellulose (CMC)): 55 % of control | T/C (dose: 800.0 mg/kg/injection, schedule: Q01DX007 (ip), vehicle: carboxymethylcellulose (CMC)): 25 % of control

CC(=O)OCC1OC(n2cnc3c(=S)nc(N)[nH]c32)C(OC(C)=O)C1OC(C)=O (stereo not given)
T/C (dose: 3.0 mg/kg/injection, schedule: Q01DX007 (ip), vehicle: other): 12 % of control | T/C (dose: 3.0 mg/kg/injection, schedule: Q01DX007 (ip), vehicle: saline): 64 % of control | T/C (dose: 4.4 mg/kg/injection, schedule: Q01DX007 (ip), vehicle: other): 6 % of control | T/C (dose: 6.6 mg/kg/injection, schedule: Q01DX007 (ip), vehicle: carboxymethylcellulose (CMC)): 43 % of control | T/C (dose: 6.6 mg/kg/injection, schedule: Q01DX007 (ip), vehicle: other): 18 % of control and 29 % of control | T/C (dose: 10.0 mg/kg/injection, schedule: Q01DX007 (ip), vehicle: carboxymethylcellulose (CMC)): 28 % of control | T/C (dose: 10.0 mg/kg/injection, schedule: Q01DX007 (ip), vehicle: other): 51 % of control | T/C [1]: 9 % of control | T/C (dose: 15.0 mg/kg/injection, schedule: Q01DX007 (ip), vehicle: other): 6 % of control and 24 % of control | T/C (dose: 22.0 mg/kg/injection, schedule: Q01DX007 (ip), vehicle: carboxymethylcellulose (CMC)): 9 % of control | T/C (dose: 22.0 mg/kg/injection, schedule: Q01DX007 (ip), vehicle: other): 3 % of control and 10 % of control | T/C (dose: 33.0 mg/kg/injection, schedule: Q01DX007 (ip), vehicle: other): 11 % of control

Clc1c(Cl)c(Cl)c(SCc2ccccc2)c(Cl)c1Cl
T/C (dose: 111.0 mg/kg/injection, schedule: Q#A X014 (ip), vehicle: saline): 83 % of control | T/C (dose: 166.5 mg/kg/injection, schedule: Q#A X014 (ip), vehicle: saline): 70 % of control | T/C (dose: 250.0 mg/kg/injection, schedule: Q#A X014 (ip), vehicle: saline): 42 % of control | T/C (dose: 375.0 mg/kg/injection, schedule: Q#A X014 (ip), vehicle: saline): 38 % of control

COC(=O)[C@@H]1c2cc3c(c(O)c2[C@@H](OC2OC(C)C(OC)C(C)(OC)C2OC)C[C@]1(C)O)C(=O)c1c(O)cc2c(c1C3=O)O[C@H]1O[C@]2(C)[C@H](O)[C@@H](N(C)C)[C@@H]1O (stereo not given in full)
T/C (dose: 0.2 mg/kg/injection, schedule: Q01DX007 (ip), vehicle: saline): 77 % of control | T/C (dose: 0.3 mg/kg/injection, schedule: Q01DX007 (ip), vehicle: saline): 81 % of control | T/C (dose: 0.44 mg/kg/injection, schedule: Q01DX007 (ip), vehicle: saline): 60 % of control | T/C (dose: 0.67 mg/kg/injection, schedule: Q01DX007 (ip), vehicle: saline): 57 % of control | T/C (dose: 1.0 mg/kg/injection, schedule: Q01DX007 (ip), vehicle: saline): 50 % of control

CC(C)(C#N)C#N
T/C (dose: 125.0 mg/kg/injection, schedule: Q01DX007 (ip), vehicle: saline): 30 % of control | T/C (dose: 187.0 mg/kg/injection, schedule: Q01DX007 (ip), vehicle: saline): 36 % of control | T/C (dose: 375.0 mg/kg/injection, schedule: Q01DX007 (ip), vehicle: saline): 52 % of control and 58 % of control
